For one assay, the target named is PI3Kα (Homo sapiens (Human), UniProt P42336). Description: Inhibition of PI3Kα efficacy assay (ADP-Glo kinase assay). Format: biochemical. Conditions: Table 4; read-out: PI3Kα inhibitory activity (IC50). The gist of the method: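 Eight five-fold dilutions of compound (2 mM DMSO stock) tested; kinase reaction with PI and ATP ran 60 min at RT, followed by ADP-Glo and detection reagent steps of 40 min each. Four-parameter logistic fitting gave IC50 values.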

The subject of assay [1] is MIA PaCa-2 cells (KRAS G12C mutant). The assay can be described thus: MIA PaCa-2 cell anti-proliferation (CellTiter-Glo). Format: cell-based. Conditions: Homo sapiens, 72 h; MIA Paca-2 cells, 3 days, Table 7; read-out: MIA PaCa-2 (IC50). As to the method: The number of viable cells was determined using the CellTiter-Glo® assay to evaluate the anti-proliferation efficacy of compounds. […] The compounds were serially diluted 4-fold in DMSO to obtain 9 concentrations, and then further diluted with DMEM (10% FBS+2.5% horse serum+1% penicillin/streptomycin) cell culture medium to obtain the working solutions (2×), 15 μL of each working solution was added to the cell culture supernatant in each well, and the cells were further incubated for 3 days at 37° C. with 5% CO2. The plate was then equilibrated with CellTiter-Glo® reagent at room temperature (25° C.) for 30 minutes. After adding 25 μL of CellTiter-Glo®, reagent, the cells were thoroughly mixed with the CellTiter-Glo® reagent using a microplate shaker for 2 minutes, and then incubated at room temperature for at least 30 minutes. […] Data were analyzed using GraphPad Prism for IC50 values (Note: The negative control refers to the group without inhibitor).

In assay [2] the test system is NCI-H358 cells (KRAS G12C mutant). Description: NCI-H358 cell proliferation inhibition (CellTiter-Glo). Format: cell-based. Conditions: Homo sapiens, NCI-H358, 72 h; H358 cells (G12C mutation), 3 days, Table 6; read-out: NCI-H358 (IC50).

PI3Kα, sequence (P42336 whole entry): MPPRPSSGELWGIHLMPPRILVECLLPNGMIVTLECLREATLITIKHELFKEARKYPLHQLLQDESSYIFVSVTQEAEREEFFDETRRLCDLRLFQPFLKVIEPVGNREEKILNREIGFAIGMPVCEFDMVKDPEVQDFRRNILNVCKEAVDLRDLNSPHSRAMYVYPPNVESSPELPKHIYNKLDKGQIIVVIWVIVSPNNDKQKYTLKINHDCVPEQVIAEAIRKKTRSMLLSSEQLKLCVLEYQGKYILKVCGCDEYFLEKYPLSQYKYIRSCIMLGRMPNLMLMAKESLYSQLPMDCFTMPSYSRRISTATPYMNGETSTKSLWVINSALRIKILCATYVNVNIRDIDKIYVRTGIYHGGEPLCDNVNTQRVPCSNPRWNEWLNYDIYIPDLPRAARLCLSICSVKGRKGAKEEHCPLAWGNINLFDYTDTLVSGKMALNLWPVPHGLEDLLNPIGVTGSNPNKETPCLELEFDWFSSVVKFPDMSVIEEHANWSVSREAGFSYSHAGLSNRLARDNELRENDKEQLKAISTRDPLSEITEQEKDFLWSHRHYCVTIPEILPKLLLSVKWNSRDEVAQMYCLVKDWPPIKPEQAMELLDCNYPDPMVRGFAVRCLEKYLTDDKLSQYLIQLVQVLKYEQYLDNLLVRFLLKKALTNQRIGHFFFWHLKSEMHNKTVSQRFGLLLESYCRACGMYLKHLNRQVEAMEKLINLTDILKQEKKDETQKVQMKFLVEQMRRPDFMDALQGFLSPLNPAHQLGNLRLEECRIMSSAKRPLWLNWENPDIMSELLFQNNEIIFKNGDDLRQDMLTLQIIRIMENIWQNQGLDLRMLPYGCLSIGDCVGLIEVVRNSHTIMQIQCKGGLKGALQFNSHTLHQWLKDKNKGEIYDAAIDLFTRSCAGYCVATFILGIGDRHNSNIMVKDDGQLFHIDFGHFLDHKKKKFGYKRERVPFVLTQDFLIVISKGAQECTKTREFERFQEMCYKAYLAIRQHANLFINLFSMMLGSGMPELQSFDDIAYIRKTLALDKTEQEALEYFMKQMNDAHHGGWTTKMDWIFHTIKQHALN
PI3Kα, sequence (P27986 whole entry partner): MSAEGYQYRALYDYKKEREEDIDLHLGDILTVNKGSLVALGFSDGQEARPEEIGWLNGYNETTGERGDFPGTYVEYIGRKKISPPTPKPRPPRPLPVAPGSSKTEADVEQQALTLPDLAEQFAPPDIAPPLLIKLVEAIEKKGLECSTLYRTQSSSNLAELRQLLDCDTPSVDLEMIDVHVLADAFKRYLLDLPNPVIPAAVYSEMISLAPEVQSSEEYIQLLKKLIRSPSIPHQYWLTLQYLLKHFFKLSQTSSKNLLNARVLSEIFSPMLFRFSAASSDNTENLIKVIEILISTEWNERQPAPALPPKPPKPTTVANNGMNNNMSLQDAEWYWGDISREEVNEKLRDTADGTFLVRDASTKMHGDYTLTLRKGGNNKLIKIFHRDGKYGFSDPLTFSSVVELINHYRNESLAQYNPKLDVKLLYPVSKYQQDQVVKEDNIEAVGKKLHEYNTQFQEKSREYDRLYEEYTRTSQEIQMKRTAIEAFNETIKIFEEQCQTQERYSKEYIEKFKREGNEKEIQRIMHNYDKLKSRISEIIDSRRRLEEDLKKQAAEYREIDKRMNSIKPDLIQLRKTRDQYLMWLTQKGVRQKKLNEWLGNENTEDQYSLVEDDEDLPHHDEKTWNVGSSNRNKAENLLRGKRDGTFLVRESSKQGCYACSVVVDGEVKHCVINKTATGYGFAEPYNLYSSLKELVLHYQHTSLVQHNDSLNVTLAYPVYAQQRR

For `COc1ncc(-c2ccc3ncnc(C4=CCN(C(=O)/C=C/C(C)=O)CC4)c3n2)cc1NS(=O)(=O)c1sc(C)nc1C` [Example 237, (E)-N-(2-methoxy-5-(4-(1-(4-oxopent-2-enoyl)-1,2,3,6-tetrahydropyridin-4-yl)pyrido[3,2-d]pyrimidin-6-yl)pyridin-3-yl)-2,4-dimethylthiazole-5-sulfonamide], the IC50 on PI3Kα was found to be 5.2 nM; in assay [1], 71.6 nM; in assay [2], 58.6 nM.
Consider `COC/C=C/C(=O)N1CCN(c2ncnc3ccc(-c4cnc(OC)c(NS(=O)(=O)c5c(F)cccc5F)c4)nc23)CC1` [Example 215, (E)-2,6-difluoro-N-(2-methoxy-5-(4-(4-(4-methoxybut-2-enoyl)piperazin-1-yl)pyridino [3,2-d]pyrimidin-6-yl)pyridin-3-yl) benzene-sulfonamide], for which the half-inhibitory concentration (IC50) at PI3Kα is 2.4 nM; in assay [1], 6.3 nM; in assay [2], 10 nM.
Turning to `COc1ncc(-c2ccc3ncnc(N4CCN(C(=O)/C=C\C(=O)C(F)(F)F)CC4)c3c2)cc1NS(=O)(=O)c1ccc(F)cc1F` [Example 248, (Z)-2,4-difluoro-N-(2-methoxy-5-(4-(4-(5,5,5-trifluoro-4-oxopent-2-enoyl)piperazin-1-yl)quinazolin-6-yl)pyridin-3-yl)benzenesulfonamide], the IC50 turned out to be 2.3 nM at PI3Kα, 44.1 nM in assay [1] and 115 nM in assay [2].
For `COc1ncc(-c2ccc3ncnc(N4CCN(C(=O)/C(C#N)=C/C(C)(C)C)CC4)c3c2)cc1NS(=O)(=O)c1ccc(F)cc1F` [Example 180, (E)-N-(5-(4-(4-(2-cyano-4,4-dimethyl-pent-2-enoyl)piperazin-1-yl)quinazolin-6-yl)-2-methoxy-pyridin-3-yl)-2,4-difluoro-benzene-sulfonamide], the IC50 at PI3Kα amounted to 1.8 nM; in assay [1] it was 45.2 nM; in assay [2] it was 114 nM.
In the case of `COc1ncc(-c2cc(F)c3ncnc(N4CCN(C(=O)/C=C/C(C)=O)CC4)c3c2)cc1NS(=O)(=O)c1ccc(F)cc1F` [Example 196, (E)-2,4-difluoro-N-(5-(8-fluoro-4-(4-(4-oxopent-2-enoyl)piperazin-1-yl)quinazoline-6-yl)-2-methoxypyridin-3-yl)benzenesulfonamide], the IC50 is 1.7 nM on PI3Kα, 155 nM in assay [1] and 186 nM in assay [2].
Turning to `CC(=O)/C=C/C(=O)N1CCN(c2ncnc3ccc(-c4cnc(OC(F)F)c(NS(=O)(=O)c5ccc(F)cc5F)c4)cc23)CC1` [Example 208, (E)-N-(2-(difluoromethoxy)-5-(4-(4-(4-oxopent-2-enoyl)piperazin-1-yl)quinazoline-6-yl)pyridin-3-yl)-2,4-difluorobenzenesulfonamide], the IC50 at PI3Kα was 30.6 nM; in assay [1] it was 1040 nM; in assay [2], 1060 nM.
For `CC(=O)/C=C/C(=O)N1CCN(c2ncnc3ccc(-c4cnc(C(F)(F)F)c(NS(=O)(=O)c5ccc(F)cc5F)c4)cc23)CC1` [Example 192, (E)-2,4-difluoro-N-(5-(4-(4-(4-oxopent-2-enoyl)piperazin-1-yl)quinazolin-6-yl)-2-(tri-fluoromethyl)pyridin-3-yl) benzene-sulfonamide], the IC50 turned out to be 9.3 nM on PI3Kα, 827 nM in assay [1] and 782 nM in assay [2].
For `COc1ncc(-c2ccc3ncnc(C4=CCN(C(=O)/C=C/C(C)=O)CC4)c3n2)cc1NS(=O)(=O)c1c(F)cccc1F` [Example 239, (E)-2,6-difluoro-N-(2-methoxy-5-(4-(1-(4-oxopent-2-enoyl)-1,2,3,6-tetrahydropyridin-4-yl)pyrido[3,2-d]pyrimidin-6-yl)pyridin-3-yl)benzenesulfonamide], the half-inhibitory concentration (IC50) on PI3Kα amounted to 6.4 nM; in assay [1], 70.2 nM; in assay [2] it was 55 nM.
The corresponding values for `C=CC(=O)N1CCN(c2ncnc3ccc(-c4cnc(OC)c(NS(=O)(=O)c5c(F)cccc5F)c4)nc23)CC1` [Example 214, N-(5-(4-(4-acryloyl-piperazin-1-yl)pyrido[3,2-d]pyrimidin-6-yl)-2-methoxy-pyridin-3-yl)-2,6-difluoro-benzene-sulfonamide] are 2.1 nM, 6.3 nM and 12.6 nM.
Consider `CC(=O)/C=C/C(=O)N1CCN(c2ncnc3ccc(-c4cnc(C)c(NS(=O)(=O)c5ccc(F)cc5F)c4)cc23)CC1` [Example 188, (E)-2,4-difluoro-N-(2-methyl-5-(4-(4-(4-oxopent-2-enoyl)piperazin-1-yl)quinazolin-6-yl)pyridin-3-yl)benzene-sulfonamide], for which the IC50 came to 3.3 nM on PI3Kα, 865 nM in assay [1] and 530 nM in assay [2].
Consider `CC(=O)/C=C/C(=O)N1CCN(c2ncnc3ccc(-c4cnc(OC(F)(F)F)c(NS(=O)(=O)c5ccc(F)cc5F)c4)cc23)CC1` [Example 194, (E)-2,4-difluoro-N-(5-(4-(4-(4-oxopent-2-enoyl)piperazin-1-yl)quinazolin-6-yl)-2-(trifluoromethoxy)pyridin-3-yl)benzenesulfonamide], for which the IC50 is 2.8 nM at PI3Kα, 782 nM in assay [1] and 728 nM in assay [2].
As to `COc1ncc(-c2ccc3ncnc(N4CCN(C(=O)/C=C/C(F)(F)F)CC4)c3n2)cc1NS(=O)(=O)c1c(F)cccc1F` [Example 216, (E)-2,6-difluoro-N-(2-methoxy-5-(4-(4-(4,4,4-trifluorobut-2-enoyl)piperazin-1-yl)pyridino [3,2-d]pyrimidin-6-yl)pyridin-3-yl)benzene-sulfonamide], the IC50 turned out to be 1 nM at PI3Kα, 47.7 nM in assay [1] and 56 nM in assay [2].
On the same counts, the results for `C=C(F)C(=O)N1CCN(c2ncnc3ccc(-c4cnc(OC)c(NS(=O)(=O)c5c(F)cccc5F)c4)nc23)CC1` [Example 211, 2,6-difluoro-N-(5-(4-(4-(2-fluoroacryloyl)piperazin-1-yl)pyrido[3,2-d]pyrimidin-6-yl)-2-methoxy-pyridin-3-yl)benzene-sulfonamide] are 1.7 nM, 10.4 nM and 12.8 nM.
For `CCC(=O)/C=C/C(=O)N1CCN(c2ncnc3ccc(-c4cnc(OC)c(NS(=O)(=O)c5c(F)cccc5F)c4)nc23)CC1` [Example 212, (E)-2,6-difluoro-N-(2-methoxy-5-(4-(4-(4-oxohex-2-enoyl)piperazin-1-yl)pyrido[3,2-d]pyrimidin-6-yl)pyridin-3-yl) benzene-sulfonamide], the IC50 at PI3Kα was determined as 3.8 nM; in assay [1] it was 14 nM; in assay [2], 15.2 nM.
With `COc1ncc(-c2ccc3ncnc(C4=CCN(C(=O)/C=C/C(C)=O)CC4)c3n2)cc1NS(=O)(=O)c1ccc(F)cc1F` [Example 240, (E)-2,4-difluoro-N-(2-methoxy-5-(4-(1-(4-oxopent-2-enoyl)-1,2,3,6-tetrahydropyridin-4-yl)pyrido[3,2-d]pyrimidin-6-yl)pyridin-3-yl)benzenesulfonamide], the results for the IC50 (at PI3Kα; in assay [1]; in assay [2]) were 5 nM, 55.2 nM and 48.7 nM, respectively.
`CCOc1ncc(-c2ccc3ncnc(N4CCN(C(=O)/C=C/C(C)=O)CC4)c3n2)cc1NS(=O)(=O)c1ccccc1F` [Example 227, (E)-N-(2-ethoxy-5-(4-(4-(4-oxopent-2-enoyl)piperazin-1-yl)pyrido[3,2-d]pyrimidin-6-yl)pyridin-3-yl)-2-fluorobenzene-sulfonamide]: the IC50 on PI3Kα worked out at 2.4 nM; in assay [1] it was 76.2 nM; in assay [2] it was 83.5 nM.
For `COc1ncc(-c2ccc3ncnc(N4CCN(C(=O)/C=C/C(C)=O)CC4)c3n2)cc1NS(=O)(=O)c1ccc(C(F)(F)F)cc1F` [Example 221, (E)-2-fluoro-N-(2-methoxy-5-(4-(4-(4-oxopent-2-enoyl)piperazin-1-yl)pyrido[3,2-d]pyrimidin-6-yl)pyridin-3-yl)-4-(trifluoro-methyl)benzene-sulfonamide], the concentration for half-maximal inhibition (IC50) at PI3Kα came to 2.2 nM; in assay [1], 60 nM; in assay [2], 42.9 nM.
For `COc1ncc(-c2ccc3ncnc(N4CCN(C(=O)/C=C/CF)CC4)c3n2)cc1NS(=O)(=O)c1c(F)cccc1F` [Example 213, (E)-2,6-difluoro-N-(5-(4-(4-(4-fluorobut-2-enoyl)piperazin-1-yl)pyrido[3,2-d]pyrimidine-6-yl)-2-methoxy-pyridin-3-yl) benzene-sulfonamide], the IC50 at PI3Kα was 9.8 nM; in assay [1], 16.4 nM; in assay [2], 14.3 nM.
For the compound `CCOc1ncc(-c2ccc3ncnc(N4CCN(C(=O)/C=C/C(C)=O)CC4)c3c2)cc1NS(=O)(=O)c1ccccc1F` [Example 190, (E)-N-(2-ethoxy-5-(4-(4-(4-oxopent-2-enoyl)piperazin-1-yl)quinazolin-6-yl)pyridin-3-yl)-2-fluoro-benzene-sulfonamide], the IC50 on PI3Kα is 9.5 nM; in assay [1], 108 nM; in assay [2], 112 nM.

For the origin of these results see patent US20250145589A1, “PYRIDINE DERIVATIVE AND USE THEREOF” (SICHUAN HUIYU PHARMACEUTICAL CO., LTD., priority 2021, published 2025).
